PubChem BioAssay (NCI)
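A five-concentration, 48-hour dose response in 96-well plates underlies each endpoint, interpolated linearly between surrounding concentrations. The concentration for 50% growth inhibition is given as GI50. TGI: concentration producing complete growth inhibition.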 *1 amine or outer side, *2 acyl side, *3 side chain or, on linkers, in order; H or OH if unused. Where a SMILES comes first, the peptide text is derived from it. Bridges are numbered along the chain shown (N, C = ends). Roman numbers before positions name the chains, in order. [ ]: non-standard residue; d: D form. Actinocin(9to1) = Cc1c2oc3c(C)ccc(C(=O)[*:1])c3nc-2c(C(=O)[*:2])c(N)c1=O; NMeV = CN[CH](C(=O)O)C(C)C; Sar = CNCC(=O)O

Tests used:
Experiment in all cases: NCI tumour cell line growth inhibition, 48 h
[1] = test system: XF 498 CNS
[2] = test system: HOP-62 NSCLC
[3] = test system: SK-MEL-2 melanoma
[4] = test system: DLD-1 colon
[5] = test system: DMS 273 small cell lung
[6] = test system: P388/ADR leukemia
[7] = test system: KM20L2 colon
[8] = test system: SN12K1 renal
[9] = test system: P388 leukemia
[10] = test system: M19-MEL melanoma
[11] = test system: HOP-18 NSCLC
[12] = test system: SNB-78 CNS
[13] = test system: A498 renal
[14] = test system: SN12C renal
[15] = test system: MDA-MB-435
[16] = test system: SR leukemia
[17] = test system: T-47D breast

Structure (SMILES)	TGI [1] [µM]	TGI [2] [µM]	TGI [3] [µM]	TGI [4] [µM]	TGI [5] [µM]	TGI [6] [µM]	TGI [7] [µM]	TGI [8] [µM]	TGI [9] [µM]	TGI [10] [µM]	TGI [11] [µM]	TGI [12] [µM]	TGI [13] [µM]	TGI [14] [µM]	TGI [15] [µM]	TGI [16] [µM]	TGI [17] [µM]	GI50 [15] [µM]	GI50 [14] [µM]
C#CC[C@@]12CC(=O)C[C@@H]1CCC1(C2)OCCO1 (tested in a mixture with another compound)	> 100	> 100	> 100	> 100	> 100	> 75	> 100	> 100	> 59.7	> 100	> 100	> 100	> 100	> 100	–	–	–	–	–
Cc1c2oc3c(C)ccc(C(=O)NC4C(=O)NC(Cc5ccccc5)C(=O)N5CCCC5C(=O)N(C)CC(=O)N(C)C(C(C)C)C(=O)OC4C)c3nc-2c(C(=O)NC2C(=O)NC(Cc3ccccc3)C(=O)N3CCCC3C(=O)N(C)CC(=O)N(C)C(C(C)C)C(=O)OC2C)c(N)c1=O (stereo not drawn) (I: TFP[Sar][NMeV] / II: TFP[Sar][NMeV]; ester I:1-I:C, II:1-II:C; linker I:N-II:N via Actinocin(9to1); configuration not given here)	–	0.102	–	–	–	–	–	–	–	–	–	–	0.0244	–	0.0222	< 0.001	0.0647	–	–
CN1CCN(Cc2c[nH]c3c2C(=O)c2c(c(O)c4ccccc4c2O)C3=O)CC1	–	–	–	–	–	–	–	–	–	–	–	–	–	21.9	16.4	–	–	3.98	10.3
